Test results published in US10406122B2 (priority 2011, dated 2019).
Where “and” joins values, the source holds several entries; their conditions need not be identical. Equal values may be shown once. Where a name gives a salt, the structure may show the parent alone. Read-outs that look alike come from different tables or passages of the source.

How the values were obtained:
[1] = tramadol […] [100 mg] p.o., single dose; cited from earlier work
[2] = cited from earlier work
[3] = test system: patients undergoing abdominal surgery; conditions: both groups; cited from earlier work
[4] = in vivo, cited from earlier work
[5] = oral administration; cited from earlier work
postoperative patients = conditions: cited from earlier work
in vivo = conditions: beagle, dog; for AUC(0-t) / Cmax: 26 mg/kg/day
[6] = test system: experienced opioid abusers; conditions: cited from earlier work
[7] = in vitro and in vivo; cited from earlier work
rats and dogs = conditions: repeat-dose; cited from earlier work
clinical = conditions: human, in vivo
Excerpt: The secondary objectives of the study are to assess the safety and tolerability of the study medication.
The study was an open-label, single-period, randomized, parallel treatment design. The subjects underwent screening within 4 weeks of dosing. A total of 32 subjects were selected for participation. All subjects entered the clinical research unit on Day −1 prior to dosing. A blood sample for pharmacogenomic analysis was obtained at Day 1. This sample was to be used to determine the CYP2D6 phenotype if significant variability among subjects is observed in the pharmacokinetic values. Subjects received study drug every 6 hours beginning on the morning of Day 1 and ending on the morning of Day 3. The first dose on Day 1 and the last dose on Day 3 were administered after a minimum 10 hour fast.
No food was administered until 4 hours after dosing on Day 3. Standardized meals were provided. Subjects remained confined to the clinical research unit until after completion of the 24 hour post-dose blood sampling and safety assessments (Day 4). […] Study drug tolerability was evaluated by Investigator assessment and evaluation of adverse event frequency and severity, including irritation at the injection site. Subjects who were taking SSRIs, tricyclic antidepressants, antipsychotic agents and MAO inhibitors were excluded from the study.
The treatments are defined in Table 3 below. Each subject received only one of the designated treatments.
The subjects were randomized to receive one of the 4 treatment regimens as outlined above. Subjects were administered Treatments A or C by intravenous administration or Ultram® (Treatment B or D) orally beginning in the morning of Day 1 at approximately 6:00 AM to 8:00 AM. All subjects fasted for at least 10 hours prior to the first dose of study drug. […] Water was allowed ad libitum; however, water was restricted from 1 hour prior to dosing to 1 hour after dosing on Day 3. Following the last dose in the morning of Day 3, no food was allowed until after the 4 hour blood sample had been obtained.
FIG. 1 is a graphical representation of the plasma concentration curve for Treatments A-D after the administration of dose #9.

For `COc1cccc([C@]2(O)CCCC[C@H]2CN(C)C)c1` (racemic) [Tramadol, (±)cis-2-[(dimethylamino)methyl]-1-(3-methoxyphenyl) cyclohexanol hydrochloride], the AUC [1] is listed as 2177 ± 722 ng·h/mL, the Cmax [1] is listed as 274 ± 75 ng/mL and the Tmax [1] is listed as 1.6 ± 0.5 h. The t1/2 [1] was 5.9 ± 0.7 h, the “estimated absorption of the oral dose” value ([2]; 100 mg PO) was 86-88% and the AUC0-24 h ([2]; 100 mg i.v.) was 3709 ± 977 ng·h/mL. The Vd ([2]; 100 mg i.v.) was 203 L, the t1/2 ([2]; 100 mg i.v.) was 5.2 h and the “CL/F (total clearance)” value ([2]; 100 mg i.v., hydrochloride) was 467 ± 124 mL/min. For the same compound, the “CL/F (total clearance)” value ([2]; 100 mg i.v., listed as tramadol, hydrochloride) was 710 ± 174 mL/min, the “time to peak serum concentration (tmax)” value ([2]; 100 mg oral dosing) was “approximately 2 hours” and the AUC0-24 h ([2]; 100 mg p.o.) was 2488 ± 774 ng·h/mL. The Cmax ([2]; 100 mg p.o.) was 280 ± 49 ng/mL, the Vd ([2]; 100 mg p.o.) was 306 L and the t1/2 ([2]; 100 mg p.o.) was 5.1 h. The “CL/F (total clearance)” value ([2]; 100 mg p.o., hydrochloride) was 710 ± 174 mL/min, the “CL/F (total clearance)” value ([2]; 100 mg p.o., listed as tramadol, hydrochloride) was 467 ± 124 mL/min and the “absolute bioavailability of the oral dose” value ([2]; 100 mg, comparison of AUC values, hydrochloride) was 68±13% and 68%. The “distribution half-life in the initial phase” value ([2]; after IV administration) was 0.31 ± 0.17 h, the “half-life of slower distribution phase” value ([2]; after IV administration) was 1.7 ± 0.4 h and the first pass metabolism ([2]; estimated) was ~20%. For the same compound, the “patients reporting adverse events” value [3] was 25%, the half-life ([4]; iv) was 5.6 h and the absolute bioavailability ([4]; po) was 90-100%. For the same compound, the “increase of elimination half-life” value [4] was “approximately 2 fold”, the “fertility and teratogenic effects” value [5] was “no safety concerns with respect to fertility or teratogenic effects” and the serious adverse effects (postoperative patients; loading doses up to 150 mg IV (Silvasti 2000)) was “not associated with any serious adverse effects”. The serious adverse effects (postoperative patients; mean cumulative doses 449 to 868.3 mg over 24, 36 and 48 h) was “no serious adverse effects were observed”, the NOAEL (in vivo; both, 6.5 mg/kg) was 26 mg/kg/day and the AUC(0-t) (in vivo; female) was 1520 ng·h/mL. For the same compound, the Cmax (in vivo; female) was 1530 ng/mL, the AUC(0-t) (in vivo; male) was 1210 ng·h/mL and the Cmax (in vivo; male) was 1280 ng/mL. For the same compound, the seizure ([6]; 200 mg IV administered over 5 minutes) was “No seizures were observed”, the seizure ([6]; 300 mg IV delivered over 2.5 minutes) was “seizure was observed” and the seizure ([6]; 700 mg IV administered over 1 minute) was “seizure was observed”. For the same compound, the “ratings of feel drug effect compared to placebo” value ([6]; IV over 5 minutes) was “significantly increased ratings”, the “ratings of liking / ARCI-MBG scale” value ([6]; tramadol 100 and 200 mg IV, morphine 10 and 20 mg IV, over 5 minutes) was “neither dose of tramadol increased ratings” and the genotoxic potential [7] was “no evidence of genotoxic potential”. The “doses with behavioral/clinical signs and convulsions” value (rats and dogs) was ≥ 25 mg/kg/day, the “Bioavailability, AUC6” value (clinical; 50 mg) was 85.2% and the “Bioavailability, AUCt” value (clinical; 50 mg) was 102.0%. The “Bioavailability, AUC∞” value (clinical; 50 mg) was 103.1%, the “Bioavailability, Cmax” value (clinical; 50 mg) was 64.3% and the “Bioavailability, T1/2” value (clinical; 50 mg) was 109.6%. The bioavailability (clinical; 50 mg) was 91.2%, the “Bioavailability, AUC6” value (clinical; 100 mg) was 70.3% and the “Bioavailability, AUCt” value (clinical; 100 mg) was 74.8%. The “Bioavailability, AUC∞” value (clinical; 100 mg) was 74.6%, the “Bioavailability, Cmax” value (clinical; 100 mg) was 54.9% and the “Bioavailability, T1/2” value (clinical; 100 mg) was 88.0%. The bioavailability (clinical; 100 mg) was 114%, the dose proportionality (clinical; iv) was “substantially dose proportional” and the AUC (clinical; iv, 50 mg) was 1960 ± 450 ng·h/mL. It also gave an AUC(0-inf) (clinical; iv, 50 mg) of 4040 ± 1060 ng·h/mL, an AUC(0-t) (clinical; iv, 50 mg) of 4010 ± 1040 ng·h/mL and a half-life (clinical; iv, 50 mg) of 6.61 ± 0.4 h. For the same compound, the Cmax (clinical; iv, 50 mg) was ~541 ng/mL, the Tmax (clinical; iv, 50 mg) was ~0.375 h and the AUC (clinical; iv, 100 mg) was 4730 ± 1240 ng·h/mL. It also gave an AUC(0-inf) (clinical; iv, 100 mg) of 11400 ± 4540 ng·h/mL, an AUC(0-t) (clinical; iv, 100 mg) of 11200 ± 4270 ng·h/mL and a half-life (clinical; iv, 100 mg) of 7.89 ± 1.54 h. The Cmax (clinical; iv, 100 mg) was ~1250 ng/mL, the Tmax (clinical; iv, 100 mg) was ~0.406 h and the “Dose Proportionality Ratio, T1/2” value (clinical; po) was 0.945. It also gave an AUC (clinical; po, 50 mg) of 1730 ± 625 ng·h/mL, an AUC(0-inf) (clinical; po, 50 mg) of 4450 ± 2110 ng·h/mL and an AUC(0-t) (clinical; po, 50 mg) of 4360 ± 2030 ng·h/mL. The half-life (clinical; po, 50 mg) was 7.39 ± 1.72 h, the Cmax (clinical; po, 50 mg) was 355 ± 121 ng/mL and the Tmax (clinical; po, 50 mg) was 1.88 ± 0.78 h. It also gave an AUC (clinical; po, 100 mg) of 3360 ± 1010 ng·h/mL, an AUC(0-inf) (clinical; po, 100 mg) of 8850 ± 4570 ng·h/mL and an AUC(0-t) (clinical; po, 100 mg) of 8660 ± 4260 ng·h/mL. The half-life (clinical; po, 100 mg) was 7.05 ± 1.97 h, the Cmax (clinical; po, 100 mg) was 703 ± 210 ng/mL and the Tmax (clinical; po, 100 mg) was 2.32 ± 1.35 h.
